The species named for assay [1] is Homo sapiens. The assay can be described thus: Inhibitory activity against elastase release by human neutrophils. The class given is functional. Details: concentration or dose not given beside the values.
For assay [2], the species on record is Homo sapiens. Put plainly: Inhibitory activity against TXB2 generation at 100 uM concentration. The class given is functional.
Assay [3] deals with T1, Phospholipase A2, membrane associated (Homo sapiens) (UniProt P14555).
T1 sequence (whole entry): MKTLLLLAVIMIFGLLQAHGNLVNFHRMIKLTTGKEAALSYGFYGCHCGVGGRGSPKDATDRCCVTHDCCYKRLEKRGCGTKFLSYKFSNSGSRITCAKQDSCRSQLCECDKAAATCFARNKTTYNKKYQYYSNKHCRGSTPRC
The assay can be described thus: Inhibitory activity against synovial human recombinant phospholipase (hr-PLA2) at 100 uM concentration.

For assay [4], the species on record is Rattus norvegicus. The assay can be described thus: Inhibition of microsomal lipid peroxidation induced by [Fe(3+)]-ADP/NADPH at 100 uM concentration. The class given is functional.
The species named for assay [5] is Rattus norvegicus. The assay can be described thus: Inhibition of microsomal lipid peroxidation induced by [Fe(2+)]/ascorbate at 100 uM concentration. The class given is functional.
The species entered for assay [6] is Rattus norvegicus. Put plainly: Inhibition of microsomal lipid peroxidation induced by CCl4/NADPH. The class given is functional.
The species named for assay [7] is Rattus norvegicus. Put plainly: Inhibition of peroxyl scavenging activity at 100 uM concentration. The class given is functional.
The species entered for assay [8] is Rattus norvegicus. Put plainly: Inhibition of microsomal lipid peroxidation induced by [Fe(3+)]-ADP/NADPH. The assay is classed as functional.
The species entered for assay [9] is Rattus norvegicus. Put plainly: Percent inhibition was evaluated by measuring the inhibition of microsomal lipid peroxidation induced by CCl4/NADPH. The assay is classed as functional. Conditions: dose or concentration not given here.
Assay [10] is filed under the species Rattus norvegicus. The assay can be described thus: Percent inhibition was evaluated by measuring the inhibition of peroxyl scavenging activity. The class given is functional. The conditions noted are these: dose or concentration not given here.
For assay [11], the species on record is Rattus norvegicus. Put plainly: Inhibition of microsomal lipid peroxidation induced by CCl4/NADPH at 100 uM concentration. The class given is functional.
The species entered for assay [12] is Rattus norvegicus. Put plainly: Inhibition of microsomal lipid peroxidation induced by CCl4/NADPH. The class given is functional. The conditions noted are these: dose or concentration not given here.
The species entered for assay [13] is Rattus norvegicus. The assay can be described thus: Percent inhibition was evaluated by measuring the inhibition of microsomal lipid peroxidation induced by CCl4/NADPH. The assay is classed as functional. The conditions noted are these: dose or concentration not given here.
The species entered for assay [14] is Rattus norvegicus. Put plainly: Percent inhibition was evaluated by measuring the inhibition of peroxyl scavenging activity at 100 uM concentration. The assay is classed as functional.
The species named for assay [15] is Rattus norvegicus. Put plainly: IC50 value was evaluated by measuring the 50% inhibition of microsomal lipid peroxidation induced by [Fe(3+)]-ADP/NADPH. The class given is functional.
The species entered for assay [16] is Rattus norvegicus. Put plainly: IC50 value was evaluated by measuring the 50% inhibition of microsomal lipid peroxidation induced by CCl4/NADPH. The class given is functional.
For assay [17], the species on record is Rattus norvegicus. The assay can be described thus: Percent inhibition was evaluated by measuring the inhibition of microsomal lipid peroxidation induced by CCl4/NADPH.p < 0.01. Conditions: dose or concentration not given here. The class given is functional.
The species named for assay [18] is Rattus norvegicus. The assay can be described thus: Percent inhibition was evaluated by measuring the inhibition of microsomal lipid peroxidation induced by [Fe(3+)]-ADP/NADPH at 100 uM concentration. The class given is functional.
Assay [19] concerns the target T1, Phospholipase A2, membrane associated (Homo sapiens). The assay can be described thus: Inhibitory activity against synovial human recombinant phospholipase (hr-PLA2) at 1 mM concentration.
The species entered for assay [20] is Rattus norvegicus. The assay can be described thus: Inhibition of microsomal lipid peroxidation induced by [Fe(3+)]-ADP/NADPH in rat liver. The class given is functional.
For assay [21], the species on record is Rattus norvegicus. Put plainly: Inhibition of microsomal lipid peroxidation induced by [Fe(3+)]-ADP/NADPH at 100 uM concentration in rat liver. The assay is classed as functional.
The species entered for assay [22] is Rattus norvegicus. Put plainly: Inhibition of microsomal lipid peroxidation induced by [Fe(2+)]/ascorbate in rat liver. The class given is functional.
Assay [23] is filed under the species Rattus norvegicus. Put plainly: IC50 value was evaluated by measuring the 50% inhibition of peroxyl scavenging activity. The class given is functional.
The species named for assay [24] is Rattus norvegicus. Put plainly: Inhibition of microsomal lipid peroxidation induced by [Fe(2+)]/ascorbate at given 100 uM concentration in rat liver. The assay is classed as functional.
Assay [25] is filed under the species Rattus norvegicus. The assay can be described thus: (§1) Inhibition of microsomal lipid peroxidation induced by CCl4/NADPH in rat liver. The class given is functional.
The species named for assay [26] is Rattus norvegicus. The assay is described as §1. The assay is classed as functional. Conditions: dose or concentration not given here.

Seven compounds from ChEMBL document CHEMBL1128476, “Synthesis and pharmacological evaluation of 2'-hydroxychalcones and flavones as inhibitors of inflammatory mediators generation” (J Med Chem, 1995) can be followed below.

pIC50: −log10 of the molar value.

The Inhibition is the change of the read-out against control, counted positive when it falls. One may read the inhibition as how much of the control response was suppressed. The pIC50 is the IC50 on a negative log10 scale, so that one unit is a factor of ten. As to `COc1ccc(-c2cc(=O)c3ccc(OC)c(OC)c3o2)cc1OC`, the Inhibition came out at 41.7% in the assay filed under Homo sapiens [1] and 38.6% in the assay listed under Homo sapiens [2]. The inhibition came to 46.2% in [3]; 93.2% in the assay filed under Rattus norvegicus [4]; 0% in the assay filed under Rattus norvegicus [5]; 30% in the assay listed under Rattus norvegicus [7]; 58.2% in the assay filed under Rattus norvegicus [9]. Moreover, the results for the pIC50 in the assay listed under Rattus norvegicus [6] and in the assay filed under Rattus norvegicus [8] were 4.25 and 4.20, respectively.
For the compound `COc1ccc(/C=C/C(=O)c2ccc(C)c(C)c2O)cc1OC`, the Inhibition in the assay listed under Homo sapiens [1] was determined as 39.6%; in the assay filed under Homo sapiens [2], 28.1%. For the same compound, the inhibition in [3] amounted to 27.5%; in the assay listed under Rattus norvegicus [10], 28.8%; in the assay filed under Rattus norvegicus [4] it was 51%; in the assay filed under Rattus norvegicus [5], 8.2%; in the assay listed under Rattus norvegicus [12] it was 55.3%. In the assay filed under Rattus norvegicus [11], this compound showed a pIC50 of 4.02.
`COc1ccc(-c2cc(=O)c3ccc(C)c(C)c3o2)cc1OC`: the values for the Inhibition in the assay listed under Homo sapiens [1] and in the assay filed under Homo sapiens [2] were 9.6% and 37.4%, respectively. Further, the inhibition came out at 26.2% in the assay listed under Rattus norvegicus [13]; 25.7% in assay [3]; 89.6% in the assay listed under Rattus norvegicus [4]; 37.4% in the assay listed under Rattus norvegicus [14]; 0% in the assay filed under Rattus norvegicus [5]. In the assay filed under Rattus norvegicus [15], this compound gave a pIC50 of 4.53.
On to `COc1ccc(/C=C/C(=O)c2ccc(OC)c(OC)c2O)cc1OC`, for which the Inhibition in the assay listed under Homo sapiens [1] turned out to be 87.6%; in the assay filed under Homo sapiens [2], 77.2%. The pIC50 in the assay listed under Rattus norvegicus [16] is 4.16. The inhibition in the assay filed under Rattus norvegicus [17] worked out at 57.2%; in assay [3], 55%; in the assay filed under Rattus norvegicus [14] it was 40%; in the assay filed under Rattus norvegicus [5] it was 0%; in the assay listed under Rattus norvegicus [18] it was 33.1%.
For `COc1ccc2c(c1)c(CC(=O)O)c(C)n2C(=O)c1ccc(Cl)cc1` [INDOMETHACIN], the results for the Inhibition in the assay filed under Homo sapiens [1] and in the assay listed under Homo sapiens [2] were 31.9% and 100%, respectively.
As to `CCN(CC)CCCC(C)Nc1c2ccc(Cl)cc2nc2ccc(OC)cc12` (centres undefined), the inhibition in assay [19] was 48.9%.
For `CCCOC(=O)c1cc(O)c(O)c(O)c1` [PROPYL GALLATE], the pIC50 in the assay filed under Rattus norvegicus [20] was 5.10; in the assay filed under Rattus norvegicus [22], 5.31; in the assay filed under Rattus norvegicus [23], 4.47; in the assay listed under Rattus norvegicus [25] it was 5.35. Also, the inhibition in the assay listed under Rattus norvegicus [21], in the assay listed under Rattus norvegicus [14], in the assay filed under Rattus norvegicus [24] and in the assay listed under Rattus norvegicus [26] was 100% each time.
